In US20250034520A1, “INCREASING DEVELOPMENTAL POTENTIAL OF HUMAN PREIMPLANTATION EMBRYOS BY REDUCING GENETIC INSTABILITY, ANEUPLOIDIES AND CHROMOSOMAL MOSAICISM” (THE TRUSTEES OF COLUMBIA UNIVERSITY IN THE CITY OF NEW YORK, priority 2022, published 2025):

What was measured:
Type in all cases: cell-based
human embryos = assay: nucleation and development of human embryos
Excerpt: Cryopreserved human cleavage-stage and blastocyst embryos and unfertilized oocytes were anonymously donated from individuals and couples who provided consent for use in research. Embryos were of good quality and had been cryopreserved for potential clinical use but were then no longer needed and donated for research. The cause of treatment is not disclosed. Range of maternal age of donated embryos is between 27-43. Embryos of both sexes were used, as provided by the unbiased fertilization of oocytes with sperm carrying either a Y or X chromosome. Cleavage stage embryos were thawed using the one-step thaw protocol using Global total with HEPES. Blastocyst stage embryos were thawed using the Quinn's Advantage thaw kit, then exposed to experimental conditions as outlined below. Vitrified embryos were thawed with the ECMPC warming solution set. Embryo culture was performed in Global Total. All experiments were conducted during incubation at 37° C. with 5% CO2 and 20% 02.
(§1) Embryos, mouse and human, were cultured in Global Total (Life-Global) for the duration of the experiments and with added compounds as outlined below. Incubation in RNA polymerase inhibitors triptolide (1 mM) or alpha amanitin (20 mg/ml) was performed from the 2PN stage (day1) to day3 of human development. Incubation in aphidicolin was performed at 2 mM. […] Mirin was used at a concentration of 50 mM. Olaparib was used to inhibit PARP at a concentration of 10 mM. All experiments were conducted during incubation at 37° C. with 5% CO2 and 19-20% O2. Chemical stock solutions were prepared in DMSO at concentrations at least 1000× higher than the final concentration.
Following the experimental exposures, mouse and human embryos were fixed in 2% paraformaldehyde (PFA) and 0.25% Triton X-100 in PBS for 10 minutes at room temperature, serially washed in phosphate-buffered solution (PBS) at room temperature, then stored in PBS at 4° C. until staining and imaging. Embryos were placed in 10-20 ml droplets of primary antibody solution within plastic tissue culture dishes covered with mineral oil for 1 hour at room temperature, serially washed (×2) in PBS containing 0.01% Triton X-100 to prevent embryos sticking to oil, then transferred to 10-20 ml secondary antibody solution and Hoechst (dilution 1:500) for 30 minutes. Embryos were then serially washed (×2) and placed in 5 ml droplets of PBS with 0.5% serum albumin in uncoated glass bottom dishes (Mattek) covered with embryo culture oil for imaging. […]
Embryos were imaged with confocal microscopy using a Zeiss LSM (LSM 710) at a magnification of 63× and the Zeiss Zen software. […] Cell numbers and staining foci numbers were counted manually. […]

mouse 2-cell embryos = assay: single-cell sequencing chromosome content analysis, mouse 2-cell embryos
Method: as §1
Single cells from blastomeres were collected on the heated stage (Tokai Hit) of an Olympus IX71 inverted microscope equipped with Narishige micromanipulators and a zona pellucida laser (Hamilton-Thorne). Single nuclei were isolated from blastomeres by lysis and dissection of different nuclei using two […] diameter Piezo micropipettes and Holding pipette (Origio). Single embryo cells or nuclei were placed manually in single wells of a 96-well plate containing 9 ml of lysis buffer, prepared as a master mix of 798 ml H2O, 6 ml of 10 mg/mL Proteinase K solution (Sigma-Aldrich), and 96 ml 10× Single Cell Lysis and Fragmentation buffer (Sigma-Aldrich). Single cells/single nuclei were lysed by heating 96-well plates containing single cells/single nuclei at 50° C. for 1 hour, followed by incubation at 99° C. for four minutes using a PCR thermocycler. Single-cell/single-nuclei whole genome amplification (WGA) using degenerate oligo-nucleotide priming PCR (DOP-PCR) was performed using the SEQPLEX Enhanced DNA Amplification Kit (SEQXE, Sigma) according to the manufacturer's instructions. In addition, a modified version of the DOP-PCR protocol that allows inline indexing of WGA DNA was also applied. WGA DNA was subsequently processed for Illumina library sequencing preparation using standard TruSeq indexing methods via the NEBNext Ultra II DNA Library Prep Kit for Illumina (New England Biolabs). NEBNext Multiplex Oligos for Illumina (96 index primers) were used for four amplification cycles. Library DNA was quantified using Qubit dsDNA HS Assay Kit (Invitrogen, Carlsbad, CA, USA) and library size distribution was confirmed using a 2100 Bioanalyzer DNA 1000 Kit (Agilent, Santa Clara, CA, USA). A unimodal curve centered around 300-500 bp was scored as a successful library preparation. Subsequently, 30 mL of each pooled library was sent for sequencing at a concentration of 20 ng/ml. Mutiplex sequencing was performed using Illumina HiSeq 2500 single end indexed run (SR100) while targeting a coverage of approximately 1 million reads per cell/nuclei, sufficient for quantitative genome-wide copy number analysis.
Analysis of DNA sequencing data was performed as previously described (Baslan et al., 2015) with minor modifications as outlined below. Briefly, multiplex sequencing data were demultiplexed according to unique barcodes with reads assigned to their respective single-cell or single-nuclei. Unique reads were aligned to the reference human and mouse genome builds, hg19 and mm9, respectively. Each genome was partitioned into 5000 bins using a previously described algorithm (Varbin) that corrects for genome sequence mappability (Baslan et al., 2012; Navin et al., 2011). Uniquely mapped reads were sorted, indexed and subsequently counted within the partitioned genomic bins. For single-cell copy number inference, read count data were normalized genome-wide followed by CBS segmentation (Olshen et al., 2004) and transformed into integer copy number states using a least-squares fit approach (Baslan et al., 2015).

mouse 1-cell embryos = assay: timing of mitotic entry in mouse 1-cell embryos; details: application in G2 phase, depending on the time point of application
Method: as §1
Mouse oocytes were activated at 1-6 hours post retrieval using 2 mM ionomycin (Sigma Aldrich) in Global Total medium for 5 minutes at 37° C. followed by culture in 10 mM puromycin and 5 mg/ml cytochalasin B for 3 hours, then cytochalasinB only for 2 hours and 10 minutes to prevent second polar body extrusion.

[1] = combined aphidicolin exposure and G2 checkpoint inhibition

## C[C@@]1(CO)[C@H](O)CC[C@@]2(C)[C@H]1CC[C@H]1C[C@@H]3C[C@@]12CC[C@]3(O)CO [aphidicolin]
Human embryos; 6 parthenogenetically activated embryos, aphidicolin and G2 checkpoint kinase inhibitor at 15.5 h
  formation of multinucleate cells: uniformly resulting in the formation of multinucleate cells
Human embryos; aphidicolin-treated human parthenotes
  failure to polarize chromosomes in the nucleus: 16/17
Mouse 2-cell embryos; aphidicolin-treated
  chromosomal abnormalities per cell: 0.62 per cell
Mouse 2-cell embryos; aphidicolin-treated, controls 98% normal
  blastomeres showing aneuploidy: 33%
Mouse 2-cell embryos; both aphidicolin and G2 checkpoint inhibitor
  aneuploidies per cell: 2.1 per cell
Mouse 2-cell embryos; combination of aphidicolin and G2 checkpoint inhibition
  blastomeres showing aneuploidy: 64.5%
Mouse 2-cell embryos; [1]
  chromosomes with aneuploidies per cell: 2 chromosomes per cell
  euploid mouse 2-cell embryos: 35.5%
Mouse 1-cell embryos
  mitotic entry: inhibited
